The values that follow come from US5981521A, “Tetrahydroisoquinoline derivatives as LHRH antagonists” (Abbott Laboratories, priority 1998, dated 1999).

The assay addresses T1, LHRH rat pituitary receptor (Rattus norvegicus, UniProt P30969).
T1 construct: from tissue; host or cells: rat pituitary
T1 sequence (P30969 1-327): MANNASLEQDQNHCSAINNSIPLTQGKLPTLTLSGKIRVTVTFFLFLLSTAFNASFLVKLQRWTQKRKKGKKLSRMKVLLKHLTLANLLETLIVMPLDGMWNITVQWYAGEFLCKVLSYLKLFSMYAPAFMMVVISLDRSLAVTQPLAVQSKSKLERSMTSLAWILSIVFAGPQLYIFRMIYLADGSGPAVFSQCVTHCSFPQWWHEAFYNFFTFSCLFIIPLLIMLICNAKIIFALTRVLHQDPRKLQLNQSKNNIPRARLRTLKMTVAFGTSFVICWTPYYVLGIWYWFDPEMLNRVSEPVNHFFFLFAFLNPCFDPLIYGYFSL
As to the kind of experiment: LHRH rat pituitary receptor binding. The essentials:
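Rat pituitary receptor binding of antagonists, run per a literature procedure. Reported as pKi, the negative log of the equilibrium dissociation constant.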

[1] abbreviates: Table 1: compounds of formula (V), by n and R1.

Where a name gives a salt, the structure may show the parent alone.

Consider `COc1cc2c(cc1OC)C(C1CCC1)N(CCCC(CCCNC(=O)CCc1ccc(F)cc1)(c1ccccc1)c1ccccc1)CC2` (stereo not shown) [Example 9, 7-[N-3-(4-Fluorophenyl)propionyl]amino-1-[N-(1,2,3,4-tetrahydro-1-cyclobutyl-6,7-dimethoxnisoguinolinyl)]1-4,4-diphenalhentane hydrochloride], for which, under setting [1], the pKI came to 10.07. Take `COc1cc2c(cc1OC)C(C1CCCC1)N(CCCC(CCCNC(=O)CCc1ccc(F)cc1)(c1ccccc1)c1ccccc1)CC2` (stereo not shown) [Example 8, 7-[N-3-(4-Fluorophenyl)propionyl]amino-1-[N-(1,2,3,4-tetrahydro-1-cyclopentyl-6.7-dimethoxyisoguinolinyl)]-4,4-diphenylheptane hydrochloride]: under setting [1], the Ki – broadly, the dissociation constant of the complex between target and ligand, obtained from inhibition or displacement – was 0.389 nM. Under setting [1], `COc1cc2c(cc1OC)C(C)N(CCCC(CCCNC(=O)CCc1ccc(F)cc1)(c1ccccc1)c1ccccc1)CC2` (racemic) [Example 1, (R,S) 7-[N-3-(4-Fluorophenyl)propionyl]amino-1-[N-(1,2,3,4-tetrahydro-1-methyl-6,7-dimethoxyisoquinolinyl]1-4,4-diphenylheptane hydrochloride] gave a pKI of 8.80. As to `COc1cc2c(cc1OC)C(C)N(CCCCC(CCCNC(=O)CCc1ccc(F)cc1)(c1ccccc1)c1ccccc1)CC2` (stereo not shown) [Example 45], the Ki under setting [1] is 35.5 nM. Consider `COc1cc2c(cc1OC)C(CCCCNC(C)c1ccccc1)N(CCCC(CCCNC(=O)CCc1ccc(F)cc1)(c1ccccc1)c1ccccc1)CC2` (stereo not drawn) [Example 31, 7-[N-3-(4-Fluorophenyl)prol)ionyl]amino-1-[N-(1,2,3,4-tetrahydro-1-(4-(N-alpha-methylbenzylamino)butyl-6,7-dimethoxyisoguinolinyl)]-4,4-diphenylheptane dihydrochloride], for which the inhibition constant (Ki) under setting [1] is 3.98 nM. In turn, `CC(=O)Oc1cc2c(cc1OC(C)=O)C(C)N(CCCC(CCCNC(=O)CCc1ccc(F)cc1)(c1ccccc1)c1ccccc1)CC2` (stereo not shown) [Example 58, 7-[N-3-(4-Fluorophenyl)propionyl]-1-[N-(1,2,3,4-tetrahydro-1-methYI-6,7-diacetoxyisoquinolinyl)]-4,4-dilhenylheptane] had a Ki (Table 2: compounds of formula (VI), by isoquinolinyl moiety R) of 12.3 nM. As for `COc1cc2c(cc1OC)C(C)N(CCCC(CCCNC(=O)CCc1ccc(Cl)c(Cl)c1)(c1ccccc1)c1ccccc1)CC2` (stereo not shown) [Example 73], the Ki (Table 3: compounds of formula (VII), by substituent R') was 2.19 nM.
